These results are taken from patent US7683173B2, “Biphenyl compounds useful as muscarinic receptor antagonists” (Theravance, Inc., priority 2005, dated 2010).

As usually defined, the Ki is the dissociation constant of the complex between target and ligand, obtained from inhibition or displacement. A lower Ki goes with tighter binding.

Series [1] deals with T1, M3 muscarinic receptor subtype (hM3) (Homo sapiens, UniProt P20309).
T1 construct: expressed in transfected cells
The series can be described thus: Radioligand binding assay ([3H]-NMS displacement). Conditions: tested in this or a similar assay. The procedure:
CHO cell lines stably expressing cloned human hM1, hM2, hM3 and hM4 muscarinic receptor subtypes, respectively, were grown to near confluency in medium consisting of HAM's F-12 supplemented with 10% FBS and 250 μg/mL Geneticin. The cells were grown in a 5% CO2, 37° C. incubator and lifted with 2 mM EDTA in dPBS. Cells were collected by 5 minute centrifugation at 650×g, and cell pellets were either stored frozen at −80° C. or membranes were prepared immediately. For membrane preparation, cell pellets were resuspended in lysis buffer and homogenized with a Polytron PT-2100 tissue disrupter (Kinematica AG; 20 seconds×2 bursts). Crude membranes were centrifuged at 40,000×g for 15 minutes at 4° C. […] The protein concentration of the membrane suspension was determined by the method described in Lowry, O. et al., Journal of Biochemistry 193:265 (1951). […]
Radioligand binding assays were performed in 96-well microtiter plates in a total assay volume of 100 μL. […] Filter plates were rinsed three times with wash buffer (10 mM HEPES) to remove unbound radioactivity. […] The plates were then counted in a PerkinElmer Topcount liquid scintillation counter (PerkinElmer Inc., Wellesley, Mass.). Binding data were analyzed by nonlinear regression analysis with the GraphPad Prism Software package (GraphPad Software, Inc., San Diego, Calif.) using the one-site competition model. […]

A further series is described as follows: Thermal analysis (DSC). It is filed as physicochemical. To be noted: DSC trace. The procedure: Differential scanning calorimetry (DSC) was performed using a TA Instruments Model Q-10 module with a Thermal Analyst controller. Data were collected and analyzed using TA Instruments Thermal Solutions software. A sample of about 1 mg was accurately weighed into an aluminum pan with lid. The sample was evaluated using a linear heating ramp of 10° C./min from ambient temperature to approximately 300° C. The DSC cell was purged with dry nitrogen during use.

Series [2] can be described thus: Dynamic moisture sorption assessment. It is filed as physicochemical. The procedure:
A dynamic moisture sorption (DMS) assessment (also known as a moisture sorption-desorption profile) was performed for samples of the crystalline monopropionate salt using a VTI atmospheric microbalance, SGA-100 system (VTI Corp., Hialeah, Fla. 33016). A sample size of approximately 10 mg was used and the humidity was set at the ambient value at the start of the analysis. A typical DMS analysis consisted of three scans: ambient to 2% relative humidity (RH), 2% RH to 90% RH, 90% RH to 5% RH at a scan rate of 5% RH/step. The mass was measured every two minutes and the RH was changed to the next value (+/−5% RH) when the mass of the sample was stable to within 0.01% for 5 consecutive points.

T1 sequence (P20309 whole entry): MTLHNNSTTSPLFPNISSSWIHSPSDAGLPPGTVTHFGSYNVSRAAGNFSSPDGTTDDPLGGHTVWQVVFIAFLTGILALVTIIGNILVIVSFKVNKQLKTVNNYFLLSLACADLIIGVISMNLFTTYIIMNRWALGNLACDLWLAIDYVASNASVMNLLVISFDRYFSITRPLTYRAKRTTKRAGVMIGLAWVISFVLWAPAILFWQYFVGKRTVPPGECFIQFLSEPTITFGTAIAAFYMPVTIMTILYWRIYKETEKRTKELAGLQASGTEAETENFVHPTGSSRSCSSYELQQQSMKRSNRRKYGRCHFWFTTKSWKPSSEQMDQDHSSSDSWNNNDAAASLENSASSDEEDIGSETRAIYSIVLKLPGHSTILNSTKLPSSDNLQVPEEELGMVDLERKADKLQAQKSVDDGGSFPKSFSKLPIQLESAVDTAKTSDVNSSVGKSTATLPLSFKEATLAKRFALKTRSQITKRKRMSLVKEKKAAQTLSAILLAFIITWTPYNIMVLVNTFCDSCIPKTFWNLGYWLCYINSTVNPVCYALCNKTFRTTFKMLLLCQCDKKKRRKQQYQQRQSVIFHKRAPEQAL

Regarding `O=C(Nc1ccccc1-c1ccccc1)OC1CCN(CCCN2CCN(CCCNCc3ccc(O)cc3)C2=O)CC1` [Example 1, Biphenyl-2-ylcarbamic Acid 1-(3-{3-[3-(4-Hydroxybenzylamino)propyl]-2-oxoimidazolidin-1-yl}propyl)piperidin-4-yl Ester], the inhibition constant (Ki) in series [1] is under 5 nM.

Take `CCC(=O)O.O=C(Nc1ccccc1-c1ccccc1)OC1CCN(CCCN2CCN(CCCNCc3ccc(O)cc3)C2=O)CC1` [Example 2, Monopropionate Crystalline Salt of Biphenyl-2-ylcarbamic Acid 1-(3-{3-[3-(4-Hydroxybenzylamino)propyl]-2-oxoimidazolidin-1-yl}propyl)piperidin-4-yl Ester]: the thermal stability entry in “Thermal analysis (DSC)” is “good thermal stability”. Also, the “hygroscopicity (sorption/desorption profile)” value in series [2] (DMS trace) is “low hygroscopicity”. Further, the weight gain came out at 1.0% in series [2] (humidity range of 40-70% RH, micronized material); 0.7% in series [2] (humidity range of 40-70% RH, unmicronized); 0.3% in series [2] (humidity range of 40-75% RH).
